Patent US20140274969A1 (priority 2013, published 2014)
Like-named read-outs stand apart in the source and are kept apart here.

Columns and labels:
[1] = Serum and CSF minocycline steady-state levels in SCI trial subjects
Description: Drug or placebo infusions were continued for a total of 14 doses i.e., for 7 days after injury (FIG. 1). All infusions were administered through a subclavian central venous catheter for a 30-min period.
Each sample was centrifuged at 2000 rpm for 5 min to separate cellular matter. The supernatant was flash frozen and stored at −80° C. in aliquots.

acute traumatic SCI [2] = assay: ASIA motor recovery after acute traumatic SCI (randomized placebo-controlled trial); assay type: in vivo, human
Description: The research protocol disclosed herein was approved by the University of Calgary Conjoint Health Research Ethics Board. Between June 2004 and August 2008, all subjects presenting with motor deficit secondary to acute traumatic SCI to the Spine Service at the Foothills Medical Centre in Calgary, Calgary, Alberta, Canada, were immediately identified to the principal investigators and were assessed and screened for this trial (Clinical Trials Gov. Identifier No. NCT00559494). Those within 12 h of injury who met other inclusion criteria (Table 1) were offered enrolment. […] For this purpose, sets of 10 random numbers balanced for odd and even integers were computer generated. Sequentially numbered and sealed packaged kits containing minocycline or placebo were constructed from the randomization codes for each stratified group by an independent individual not otherwise involved in the trial. Patients were administered the next available treatment kit for their appropriate treatment group. With the exception of the bedside nurse responsible for study drug administration, all subjects and research personnel were blinded to treatment until the end of the study (FIG. 1). […] Clin. Exp. Pharmacol. Physiol. 1:299-308). […] Neurological function was assessed at intervals using the American Spinal Cord Injury Association (ASIA) standardized neurological examination and included the motor composites and sensory composites. These examinations were performed by a physical medicine and rehabilitation specialist at Day 1 (time of enrolment), Day 4, Day 5, Day 7, Week 3, Week 6, Week 12, Month 6, and Month 12 (Table 3). Day 1 scores were subtracted from each subsequent score to calculate improvement from baseline for graphing purposes. […] ASIA sensory scores were similarly evaluated. […] Functional recovery data were compared over all data points. […] All statistical tests were two-tailed (a=0.05).

acute traumatic SCI [3] = assay: Functional recovery scales (SCIM, FIM, London Handicap, SF36) after SCI; assay type: in vivo, human; details: 6 to 52 weeks after injury
Description: Clin. Exp. Pharmacol. Physiol. 1:299-308). […] Functional outcome was assessed using the Spinal Cord Independence Measure, Functional Independence Measure, London Handicap scale, and Short Form 36 questionnaires administered at 6 weeks, 12 weeks, 26 weeks, and 52 weeks after injury. […] ASIA sensory scores were similarly evaluated. […] Functional recovery data were compared over all data points. […] All statistical tests were two-tailed (a=0.05).

[4] = cited from earlier work
[5] = cited from earlier work; remark: listed apart in the source
MMP activity = details: cited from earlier work
SCI [6] = details: mice; two 50 mg/kg i.p. doses then three 25 mg/kg doses at 24 h intervals; cited from earlier work
SCI [7] = details: rats; 90 mg/kg immediately after SCI then 45 mg/kg every 12 h; cited from earlier work
SCI [8] = details: rats; three 30 mg/kg i.p. doses at 30 min, 60 min, 24 h after SCI; 28-day observation; cited from earlier work
SCI [9] = details: rats; i.p. every 12 h for 3 days, 90 mg/kg then 30 mg/kg; cited from earlier work
[10] = system: hypoxic-ischemic brain injury; details: mice; s.c. 135 mg/kg then two 68 mg/kg doses at 24-h intervals; cited from earlier work
contusive SCI = details: rats; 90 mg/kg i.p. or via jugular cannula, then two 45 mg/kg i.p. at 12-h intervals; cited from earlier work
cervical SCI = details: rat; 90 mg/kg i.p. daily for 3 days; 42-day monitoring; cited from earlier work
[11] = system: amyotrophic lateral sclerosis; details: human; cited from earlier work
[12] = 200 mg twice-daily intravenously
[13] = 800 mg loading dose tapered by 100 mg every 12 h to 400 mg, IV, 7 days
[14] = long-term administration, global reports

CN(C)c1ccc(O)c2c1C[C@H]1C[C@H]3[C@H](N(C)C)C(O)=C(C(N)=O)C(=O)[C@@]3(O)C(O)=C1C2=O [minocycline, (2E,4S,4aR,5aS,12aR)-2-(amino-hydroxy-methylidene)-4,7-bis(dimethylamino)-10,11,12a-trihydroxy-4-a,5,5a,6-tetrahydro-4H-tetracene-1,3,12-trione]
CSF steady-state concentration [1, 12]: 1 µg/mL | time to serum steady state [1, 12]: ≤ 48 h | serum steady-state concentration ([1]; 200 mg twice-daily intravenously, first five patients): 4.2 µg/mL | time to serum and CSF steady state ([1]; 800 mg loading dose tapered by 100 mg every 12 h to 400 mg, IV): ≤ 24 h | CSF steady state [1, 13]: 2.3 µg/mL | serum steady-state concentration [1, 13]: 12.7 µg/mL | ASIA motor recovery greater than placebo (acute traumatic SCI [2]; all subjects with data beyond 3 months (44), 3-12 month plateau, P=0.20): 6 motor points | distribution of motor recovery difference vs placebo: lower extremity and new segment scores (acute traumatic SCI [2]; cervical SCI): majority of the difference | distribution of motor recovery difference vs placebo: upper extremities, zone of partial preservation (acute traumatic SCI [2]; cervical SCI): Little difference | difference in ASIA motor score over placebo (acute traumatic SCI [2]; cervical SCI (n=25), 95% CI 0-28, P=0.05): 14 point | motor recovery, low-dose vs high-dose groups (acute traumatic SCI [2]; cervical SCI subgroups (FIG. 5)): greater difference with higher doses | difference in ASIA motor score over placebo (acute traumatic SCI [2]; cervical motor-complete (n=16), P=0.29): 10 points | difference in ASIA motor score over placebo (acute traumatic SCI [2]; cervical motor-incomplete (n=9), P=0.12): 22 points | difference in ASIA motor score over placebo (acute traumatic SCI [2]; cervical motor-incomplete, excluding one placebo subject with poor recovery (n=8), P=0.135): 13 points | ASIA motor recovery benefit vs placebo (acute traumatic SCI [2]; thoracic SCI (n=17)): did not show any benefit | functional outcomes (SCIM, FIM, London Handicap Scale, Short Form 36) vs placebo (acute traumatic SCI [3]): greater in the minocycline-treated group but the differences were not statistically significant | eliminated unchanged through the kidneys ([4]; human, in vivo): Eight to twelve | elimination in biologically active form through the feces ([4]; human, in vivo): 20-35 % of the initial dose | metabolism to three inactive liver metabolites excreted in urine and feces ([4]; human, in vivo): 50-60 % of the administered dose | peak serum concentration ([4]; oral 150 mg): about 2 mg/L | peak serum concentration ([4]; oral 300 mg): about 4 mg/L | half-life ([4]; oral or intravenous administration): 16 h | serum concentrations well tolerated ([5]; humans): up to 6.2 mg/L | cases of drug induced lupus [5, 14]: 33 cases | cases of hypersensitivity reaction [5, 14]: 19 cases | cases of serum sickness-like reaction [5, 14]: 11 cases | cases of single organ dysfunction [5, 14]: 40 cases | inhibition of MMP activity (MMP activity): potent inhibitor | recovery from SCI (SCI [6]): facilitated significant recovery | functional motor control in the hind limbs (SCI [7]): improved | size of lesions on spinal cords (SCI [7]): reduced | recovery in functional hind limb motor control (SCI [8]): facilitated significant recovery | hindlimb motor function (SCI [9]): significantly increased | effects of hypoxic-ischemic brain injury [10]: significantly exacerbated | behavioural or histological improvements or recovery from SCI (contusive SCI): neither route for minocycline administration resulted in any behavioural or histological improvements | functional or histological improvements (cervical SCI): did not result in any functional or histological improvements | clinical outcome in amyotrophic lateral sclerosis [11]: clinical deterioration
